The results in this text go back to patent publication US20070167466A1, “"Pyrazolo [4,3-d]pyrimidines, processes for their preparation and methods of use"” (priority 2003, published 2007).

The target of assay [1] is T1, CDK1 (p34^cdc2, cyclin B) (Homo sapiens, UniProt P06493).
T1 construct: made in house; host or cells: Sf9 insect cells (baculovirus co-infection)
Description: CDK inhibition assay, p34^cdc2 kinase, histone H1 phosphorylation. Type of assay: biochemical. Conditions: 15 μM ATP, histone H1, 30° C. On the procedure:
The controls contain suitable dilutions of DMSO.
2-glycerolphosphate, 1 mM NaF, 1 mM DTT

Assay [2] concerns the target CDK2 (p33^cdk2, cyclin E) (Homo sapiens, UniProt P24941). Description: CDK inhibition assay, p33^cdk2 kinase, histone H1 phosphorylation.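 Also: Baculovirus-expressed kinase/cyclin complex from Sf9 cell extract, 10 min at 30 °C, phosphoproteins separated by SDS gel and quantified by image analysis, activity relative to DMSO control.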
Description: Cyclin-dependent kinases (p34^cdc2, p33^cdk2) and cyclins (cyclin B, E) are produced in Sf9 insect cells coinfected with appropriate baculoviral constructs. The cells are harvested 68-72 hrs post infection in lysis buffer for 30 min on ice and the soluble fraction is recovered by centrifugation at 14.000 g for 10 min. The protein extract is stored at −80° C.
Lysis buffer: 50mM Tris pH 7.4, 150mM NaCl, 5 mM EDTA, 20 mM NaF, 1% Tween, 1 mM DTT, 0.1 mM PMSF, leupeptine, aprotonine.
To carry out experiments on kinetics under linear conditions, the final point test system for kinase activity measurement is used. The kinase is added to reaction mixture in such a way as to obtain linear activity with respect to the concentration of enzyme and with respect to time.
Kinase activity is determined at 30° C. in the kinase buffer.
Tested compounds are usually dissolved to 100 mM solutions in DMSO, final concentration of DMSO in reaction mixture never exceeds 1%. The controls contain suitable dilutions of DMSO.
After 10 min, addition 3×SDS sample buffer stops the incubations. Phosphorylated proteins are separated electrophoretically using 10% SDS polyacrylamide gel. The measurement of kinase activity is done using digital image analysis.
The kinase activity is expressed as a percentage of maximum activity, the apparent inhibition constants are determined by graphic analysis.
Kinase buffer: 50 mM Hepes pH 7.4, 10 mM MgCl2, 5 mM EGTA, 10 mM

T1 sequence (P06493 whole entry, species assumed): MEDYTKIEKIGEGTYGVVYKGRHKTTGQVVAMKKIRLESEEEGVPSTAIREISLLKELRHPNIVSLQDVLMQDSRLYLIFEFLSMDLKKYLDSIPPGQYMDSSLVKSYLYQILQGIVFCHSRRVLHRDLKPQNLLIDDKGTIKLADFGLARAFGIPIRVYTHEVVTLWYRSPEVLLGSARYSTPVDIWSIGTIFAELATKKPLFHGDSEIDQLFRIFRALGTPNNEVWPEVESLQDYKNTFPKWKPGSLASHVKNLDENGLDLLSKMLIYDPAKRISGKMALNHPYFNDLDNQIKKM
T1 sequence (P14635 whole entry partner, species assumed): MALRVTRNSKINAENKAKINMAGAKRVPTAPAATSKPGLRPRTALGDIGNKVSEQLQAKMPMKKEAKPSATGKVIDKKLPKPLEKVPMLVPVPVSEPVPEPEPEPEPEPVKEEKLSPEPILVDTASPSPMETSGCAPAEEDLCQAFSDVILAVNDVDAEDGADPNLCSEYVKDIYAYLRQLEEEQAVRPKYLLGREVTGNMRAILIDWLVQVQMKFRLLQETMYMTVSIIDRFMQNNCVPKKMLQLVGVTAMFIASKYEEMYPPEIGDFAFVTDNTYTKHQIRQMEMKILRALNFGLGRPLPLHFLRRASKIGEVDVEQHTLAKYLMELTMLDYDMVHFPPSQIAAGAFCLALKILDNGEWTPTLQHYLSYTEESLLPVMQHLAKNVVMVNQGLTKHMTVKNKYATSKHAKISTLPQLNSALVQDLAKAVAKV

`Cc1n[nH]c2c(Nc3ccc(C(=O)O)c(Cl)c3)ncnc12` [3-chloro-4-carboxyanilino / methyl]: the concentration for half-maximal inhibition (IC50) (usually the concentration needed to halve the response being measured) in assay [1] was 25 µM; in assay [2], 28 µM.

As to `C=CCNc1ncnc2c(CC)n[nH]c12` [allylamino / ethyl], the IC50 in assay [1] turned out to be 25 µM; in assay [2], 29 µM.

As for `Cc1n[nH]c2c(Nc3ccc(Br)cc3)ncnc12` [4-bromoanilino / methyl], the IC50 is 16 µM in assay [1] and 18 µM in assay [2].

Take `CCc1n[nH]c2c(NCc3ccccc3C)ncnc12` [2-methylbenzylamino / ethyl]: the IC50 stood at 15 µM in assay [1] and 14 µM in assay [2].

On to `Cc1ccccc1CNc1ncnc2c(C)n[nH]c12` [2-methylbenzylamino / methyl], for which the IC50 in assay [1] turned out to be 18 µM; in assay [2], 17 µM.

In the case of `Cc1n[nH]c2c(Nc3ccc(Cl)cc3)ncnc12` [4-chloroanilino / methyl], the IC50 in assay [1] amounted to 26 µM; in assay [2], 28 µM.

With `CCc1n[nH]c2c(NC3CCCC3)ncnc12` [cyclopentylamino / ethyl], the half-inhibitory concentration (IC50) in assay [1] and in assay [2] was 32 µM throughout.

Consider `C=CCNc1ncnc2c(C)n[nH]c12` [allylamino / methyl], for which the 50% inhibitory concentration (IC50) in assay [1] was found to be 42 µM; in assay [2] it was 48 µM.

Consider `CCc1n[nH]c2c(Nc3cc(N)cc(Cl)c3)ncnc12` [3-chloro-5-aminoanilino / ethyl], for which the IC50 in assay [1] came out at 20 µM; in assay [2] it was 15.5 µM.

With `CCc1n[nH]c2c(NCC=C(C)C)ncnc12` [isopentenylamino / ethyl], the IC50 was 45 µM in assay [1] and 41 µM in assay [2].

`CCc1n[nH]c2c(NC3CCCCC3)ncnc12` [cyclohexylamino / ethyl]: the IC50 in assay [1] came to 39 µM; in assay [2], 42 µM.

Regarding `Cc1n[nH]c2c(Nc3ccccc3)ncnc12` [anilino / methyl], the half-inhibitory concentration (IC50) in assay [1] came to 22 µM; in assay [2], 21 µM.

Turning to `CCc1n[nH]c2c(Nc3ccc(Cl)c(N)c3)ncnc12` [3-amino-4-chloroanilino / ethyl], the IC50 stood at 23 µM in assay [1] and 22 µM in assay [2].

In the case of `Cc1n[nH]c2c(Nc3ccc(Cl)c(C(=O)O)c3)ncnc12` [3-carboxy-4-chloroanilino / methyl], the IC50 in assay [1] came out at 24 µM; in assay [2], 29 µM.

`Cc1n[nH]c2c(NC3CCCC3)ncnc12` [cyclopentylamino / methyl]: the 50% inhibitory concentration (IC50) in assay [1] stood at 29 µM; in assay [2], 46 µM.

For the compound `Cc1n[nH]c2c(NCc3cccc(Cl)c3)ncnc12` [3-chlorobenzylamino / methyl], the IC50 in assay [1] is 8.8 µM; in assay [2], 9.4 µM.

On to `CCc1n[nH]c2c(Nc3ccc(C(=O)O)c(Cl)c3)ncnc12` [3-chloro-4-carboxyanilino / ethyl], for which the IC50 was 36 µM in assay [1] and 32 µM in assay [2].

On to `Cc1cccc(CNc2ncnc3c(C)n[nH]c23)c1` [3-methylbenzylamino / methyl], for which the IC50 in assay [1] was 28 µM; in assay [2] it was 31 µM.

On to `Cc1n[nH]c2c(NC3CCCCC3)ncnc12` [cyclohexylamino / methyl], for which the IC50 in assay [1] is 34 µM; in assay [2], 32 µM.

Regarding `CCc1n[nH]c2c(Nc3ccc(O)c(C(=O)O)c3)ncnc12` [3-carboxy-4-hydroxyanilino / ethyl], the results for the IC50 in assay [1] and in assay [2] were 24 µM and 22 µM, respectively.

Consider `Cc1n[nH]c2c(Nc3ccc(O)c(C(=O)O)c3)ncnc12` [3-carboxy-4-hydroxyanilino / methyl], for which the IC50 came to 34 µM in assay [1] and 40 µM in assay [2].

Consider `CCc1n[nH]c2c(Nc3ccc(Cl)c(C(=O)O)c3)ncnc12` [3-carboxy-4-chloroanilino / ethyl], for which the IC50 in assay [1] is 38 µM; in assay [2], 40 µM.

Consider `CCc1n[nH]c2c(Nc3ccc(Br)cc3)ncnc12` [4-bromoanilino / ethyl], for which the IC50 is 22 µM in assay [1] and 18 µM in assay [2].

With `CCc1n[nH]c2c(Nc3ccc(N)c(Cl)c3)ncnc12` [3-chloro-4-aminoanilino / ethyl], the concentration for half-maximal inhibition (IC50) in assay [1] amounted to 35 µM; in assay [2] it was 28 µM.
